{
  "source": "patent US9233117B2",
  "about": "“Treatment of inflammatory lesions of rosacea with ivermectin” (Galderma S.A., priority 2013, dated 2016)",
  "key": {"[1]": {"details": "orally administered; cited from earlier work"}, "subjects with PPR": {"system": "subjects with PPR", "experiment": "Study 1 and Study 2: once-daily ivermectin 1% cream vs vehicle in moderate to severe PPR (Example 3)", "type": "in vivo, human", "procedure": "Both studies were conducted in accordance with the ethical principles of the Declaration of Helsinki and Good Clinical Practices, and in compliance with local regulatory requirements.\nEach study had three parts. In the first part of the study, subjects with PPR were treated with ivermectin 1% cream (IVM 1%) or vehicle once daily at bedtime for 12 weeks. In the second part of the study, subjects initially treated with IVM 1% once daily at bedtime continued the same treatment, while subjects treated with the vehicle once daily switched to topical treatment with azelaic acid 15% gel twice daily, in the morning and evening. The third part of the study consisted of 4 weeks safety follow-up, without treatment.\nEligible subjects were 18 years or older, with moderate or severe papulopustular rosacea as noted by an IGA of 3 (“several small or large papules/pustules, moderate erythema”) or 4 (“numerous small and/or large papules/pustules, severe erythema”), and presenting with 15-70 facial inflammatory lesions (papules and pustules). […]\nEfficacy assessments at each visit were the IGA of disease severity, and inflammatory lesion counts (papules and pustules) on each of the five facial regions (forehead, chin, nose, right cheek, left cheek). Safety assessments included adverse events (AEs) throughout the study, local tolerance parameters (stinging/burning, dryness, itching) at each study visit evaluated on a 4-point scale [from 0 (none) to 3 (severe)], and laboratory parameters (hematology and biochemistry) measured before and after treatment. […]\nThe co-primary efficacy endpoints in both studies were the success rate based on the IGA outcome and absolute change from baseline in inflammatory lesion counts at the end of week 12 of the studies. The success rate based on IGA score [% of subjects who achieved “clear” or “almost clear” ratings on the IGA scale at week 12 (ITT-LOCF)] was analyzed by the Cochran-Mantel-Haenszel (CMH) test stratified by analysis site, using the general association statistic. […]"}, "[2]": {"experiment": "Plasma pharmacokinetic study of ivermectin 1% cream in subjects with severe PPR (Example 5)", "type": "in vivo, human", "procedure": "A multi-center, open-label, single treatment study was conducted to assess the pharmacokinetic (PK) profile of ivermectin 1% (w/w) cream in subjects with severe PPR. A maximized dose of about 2 mg/cm^2 (1 g of ivermectin 1% (w/w) cream, equivalent to 10 mg ivermectin per application) was applied to the face once daily for 4 weeks. The treatment was followed by a 28-Day follow-up period.\nA total of seventeen subjects received at least one dose of treatment. All subjects provided PK parameters at some time points, but fifteen (9 females and 6 males) provided full PK profiles at Days 0, 14 and 28.\nBlood samples for determination of ivermectin levels in plasma were taken from all subjects before application on Days 0, 7, 14, 21 and 28 (pre-dose samples corresponding to Cmin). Additional blood samples were taken on Days 0, 14 and 28 at 1, 3, 6, 9 and 12 hours after application. At, the end of the 28-Day treatment, blood samples were taken on Days 29, 30, 32, 35, 38, 42, 49 and 56 during the follow-up period. The plasma was isolated and frozen (−20° C.) pending analysis.\nThe pharmacokinetic analysis was performed. From the individual plasma concentrations, the pharmacokinetic parameters were determined by non-compartmental method Kinetica™ sofware, version 4.3, InnaPhase Corporation, Philadelphia, USA).\nAUC0-24 H was calculated by the mixed linear-logarithmic trapezoidal method at Day 0, 14 and 28. BLQ was imputed as zero in the individual PK profile.\nDuring the follow up period, the following parameters were measured: • (1) AUC0-t: Area under the concentration-time curve calculated by the mixed linear-logarithmic trapezoidal method from T0 up to the sampling time corresponding to the last quantifiable concentration (Clast); • (2) Kel: The elimination rate constant value (kel) was obtained by linear regression of log-linear terminal phase of concentration-time profile using at least 3 data points, excluding Cmax, otherwise kel was not determined. The acceptability criteria for determination of kel was a coefficient of regression more or equal to 0.98. When kel was not determined, AUC0-inf and t½ were not reported; • (3) t½: The terminal half-life value (t½) was calculated using the equation ln2/kel; • (4) AUC0-inf: Area under the plasma concentration-time curve calculated by the mixed linear-logarithmic trapezoidal method from T0 and extrapolated to time infinity as: AUC0-inf=AUC0-t+Clast/kel.\nWhen the extrapolation represented more than 20%, AUC0-inf and t1/2 […]. Mean values, standard deviation (SD), lowest individual value (Min), maximal individual value (Max) and coefficient of variation (CV) were calculated and reported on each variables (Arithmetic mean for AUC, Cmax, Tmax and harmonic mean for t1/2). Conversely to the protocol, the standard error of mean (SEM) were not calculated and not reported. In addition a statistical analysis was performed on ivermectin specific parameters (including the accumulation ratios)."}},
  "note": "“And” between values parts separate entries of the source, which are not always exact repeats. Equal entries are not always repeated.",
  "data": [
    {"substance": "ivermectin", "values": [
      {"measurement": "t1/2, typical", "setting": "[1]", "result": "around 18 hours"},
      {"measurement": "plasma accumulation of ivermectin", "setting": "subjects with PPR; 52-week treatment period (Phase 3 study)", "result": "no plasma accumulation"},
      {"measurement": "median reduction from baseline in inflammatory lesion counts", "setting": "subjects with PPR; Study 1, week 2", "result": "about 30%"},
      {"measurement": "median reduction from baseline in inflammatory lesion counts", "setting": "subjects with PPR; Study 2, week 2", "result": 27.3, "unit": "%"},
      {"measurement": "AUC0-24 H, Min-Max", "setting": "[2]; Day 0", "result": "[3.16-21.28] ng · h/mL"},
      {"measurement": "AUC0-24 H, mean ± SD", "setting": "[2]; Day 0", "result": "9.29 ± 5.40", "unit": "ng·h/mL"},
      {"measurement": "Pre-dose/Cmin, Min-Max", "setting": "[2]; Day 0", "result": "[0.17-0.86] ng/mL"},
      {"measurement": "Tmax, Min-Max", "setting": "[2]; Day 0", "result": "[1-24] h"},
      {"measurement": "Pre-dose/Cmin, mean ± SD", "setting": "[2]; Day 0 (24 hours after D0), plasma, 1 g ivermectin 1% cream on the face once daily", "result": "0.37 ng/mL and 0.37 ± 0.21^(a) ng/mL"},
      {"measurement": "Cmax, mean ± SD", "setting": "[2]; Day 0 (single topical application)", "result": 0.69, "unit": "ng/mL"},
      {"measurement": "Pre-dose/Cmin, Min-Max", "setting": "[2]; Day 7", "result": "[0.56-3.26] ng/mL"},
      {"measurement": "Pre-dose/Cmin, mean ± SD", "setting": "[2]; Day 7, plasma, ivermectin 1% cream once daily", "result": "1.17 ± 0.88", "unit": "ng/mL"},
      {"measurement": "Pre-dose/Cmin, Min-Max", "setting": "[2]; Day 14", "result": "[0.58-2.34] ng/mL"},
      {"measurement": "Tmax, Min-Max", "setting": "[2]; Day 14", "result": "[0-24] h"},
      {"measurement": "AUC0-24 H, mean ± SD", "setting": "[2]; Day 14 (steady state)", "result": "36.14 ± 15.56", "unit": "ng·h/mL"},
      {"measurement": "Cmax, mean ± SD", "setting": "[2]; Day 14 (steady state)", "result": "2.10 ± 1.04", "unit": "ng/mL"},
      {"measurement": "Tmax, mean ± SD", "setting": "[2]; Day 14 (steady state)", "result": "10 ± 8", "unit": "h"},
      {"measurement": "Pre-dose/Cmin, mean ± SD", "setting": "[2]; Day 14, plasma, ivermectin 1% cream once daily", "result": "1.26±0.53 ng/mL and 1.26 ± 0.53^(c) ng/mL"},
      {"measurement": "Pre-dose/Cmin, Min-Max", "setting": "[2]; Day 21", "result": "[0.66-3.25] ng/mL"},
      {"measurement": "Pre-dose/Cmin, mean ± SD", "setting": "[2]; Day 21, plasma, ivermectin 1% cream once daily", "result": "1.36±0.66 ng/mL and 1.36 ± 0.66^(c) ng/mL"},
      {"measurement": "AUC0-24 H, mean ± SD", "setting": "[2]; Day 28", "result": "35.43 ± 14.42", "unit": "ng·h/mL"},
      {"measurement": "Cmax, Min-Max", "setting": "[2]; Day 28", "result": "[0.58-3.36] ng/mL"},
      {"measurement": "Cmax, mean ± SD", "setting": "[2]; Day 28", "result": "1.74 ± 0.77", "unit": "ng/mL"},
      {"measurement": "Pre-dose/Cmin, Min-Max", "setting": "[2]; Day 28", "result": "[0.53-3.00] ng/mL"},
      {"measurement": "Tmax, Min-Max", "setting": "[2]; Day 28", "result": "[3-24] h"},
      {"measurement": "Tmax, mean ± SD", "setting": "[2]; Day 28", "result": "11 ± 4", "unit": "h"},
      {"measurement": "total systemic exposure (AUC0-inf)", "setting": "[2]; Day 28", "result": "312 ± 173", "unit": "ng·h/mL"},
      {"measurement": "Pre-dose/Cmin, mean ± SD", "setting": "[2]; Day 28, plasma, ivermectin 1% cream once daily", "result": "1.36 ± 0.63", "unit": "ng/mL"},
      {"measurement": "time of last quantifiable concentration after application", "setting": "[2]; after Day 28", "result": "approximately 24 days"},
      {"measurement": "apparent terminal half-life, range", "setting": "[2]; after the last topical application (Day 28), 14 subjects", "result": "92 to 238", "unit": "h"},
      {"measurement": "relative bioavailability vs oral administration of ivermectin", "setting": "[2]; steady state, topical", "result": 16, "unit": "%"}
    ]}
  ]
}
